This is an account of results in article PMC11882969 (Nature Communications, 2025).

For data set [1], the target named is panel of 320 non-olfactory GPCRs (Homo sapiens, UniProt P08588). In kind it is cell-based.
Data set [2] concerns the target panel of 320 non-olfactory GPCRs (Homo sapiens, UniProt P30559). In kind it is cell-based.
For data set [3], the target named is panel of 320 non-olfactory GPCRs (Homo sapiens, UniProt P41586). In kind it is cell-based.
Data set [4] addresses panel of 320 non-olfactory GPCRs (Homo sapiens, UniProt Q16581). In kind it is cell-based.
In data set [5] the target is panel of 320 non-olfactory GPCRs (Homo sapiens, UniProt Q8NFJ5). In kind it is cell-based.
Chain of panel of 320 non-olfactory GPCRs (Homo sapiens, UniProt Q8NFJ5) (Q8NFJ5 whole entry): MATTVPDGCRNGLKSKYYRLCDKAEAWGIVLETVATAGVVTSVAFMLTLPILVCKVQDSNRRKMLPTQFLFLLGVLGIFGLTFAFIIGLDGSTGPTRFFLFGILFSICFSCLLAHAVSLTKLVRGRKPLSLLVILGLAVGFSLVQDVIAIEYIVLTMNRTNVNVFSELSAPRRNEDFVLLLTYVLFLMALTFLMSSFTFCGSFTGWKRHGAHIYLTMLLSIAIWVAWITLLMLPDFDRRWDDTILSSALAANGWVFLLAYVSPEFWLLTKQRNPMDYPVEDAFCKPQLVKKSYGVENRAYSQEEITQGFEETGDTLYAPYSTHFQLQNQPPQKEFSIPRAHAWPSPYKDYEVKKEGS
The target of data set [6] is panel of 320 non-olfactory GPCRs (Homo sapiens, UniProt Q8TDU6). In kind it is cell-based.
Chain of panel of 320 non-olfactory GPCRs (Homo sapiens, UniProt Q8TDU6) (Q8TDU6 whole entry): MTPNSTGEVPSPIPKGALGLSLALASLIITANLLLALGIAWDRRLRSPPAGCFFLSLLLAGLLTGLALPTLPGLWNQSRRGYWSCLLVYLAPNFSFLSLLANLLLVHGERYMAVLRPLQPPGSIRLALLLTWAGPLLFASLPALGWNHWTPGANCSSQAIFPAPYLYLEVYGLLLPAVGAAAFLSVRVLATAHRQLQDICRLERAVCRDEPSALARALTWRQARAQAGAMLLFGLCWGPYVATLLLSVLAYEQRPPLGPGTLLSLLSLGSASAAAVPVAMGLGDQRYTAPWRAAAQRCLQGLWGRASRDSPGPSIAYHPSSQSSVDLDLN
The target in data set [7] is panel of 320 non-olfactory GPCRs (Homo sapiens, UniProt Q8TDV5). The format is cell-based.
Data set [8] has as its target panel of 320 non-olfactory GPCRs (Homo sapiens, UniProt Q969V1). The format is cell-based.
In data set [9] the target is panel of 320 non-olfactory GPCRs (Homo sapiens, UniProt Q96LA9). In kind it is cell-based.
Chain of panel of 320 non-olfactory GPCRs (Homo sapiens, UniProt Q96LA9) (Q96LA9 whole entry): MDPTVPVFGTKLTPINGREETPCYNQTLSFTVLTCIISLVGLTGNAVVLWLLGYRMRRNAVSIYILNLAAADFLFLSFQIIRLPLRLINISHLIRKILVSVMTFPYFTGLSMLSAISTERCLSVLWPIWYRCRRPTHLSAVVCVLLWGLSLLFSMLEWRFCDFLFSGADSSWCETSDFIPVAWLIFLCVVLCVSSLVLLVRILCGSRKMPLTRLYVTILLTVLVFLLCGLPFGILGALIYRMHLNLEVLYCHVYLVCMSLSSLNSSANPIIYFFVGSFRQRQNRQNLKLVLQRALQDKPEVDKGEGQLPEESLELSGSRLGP
Data set [10] deals with panel of 320 non-olfactory GPCRs (Homo sapiens, UniProt Q9NZH0). The format is cell-based.
Chain of panel of 320 non-olfactory GPCRs (Homo sapiens, UniProt Q9NZH0) (Q9NZH0 29-403): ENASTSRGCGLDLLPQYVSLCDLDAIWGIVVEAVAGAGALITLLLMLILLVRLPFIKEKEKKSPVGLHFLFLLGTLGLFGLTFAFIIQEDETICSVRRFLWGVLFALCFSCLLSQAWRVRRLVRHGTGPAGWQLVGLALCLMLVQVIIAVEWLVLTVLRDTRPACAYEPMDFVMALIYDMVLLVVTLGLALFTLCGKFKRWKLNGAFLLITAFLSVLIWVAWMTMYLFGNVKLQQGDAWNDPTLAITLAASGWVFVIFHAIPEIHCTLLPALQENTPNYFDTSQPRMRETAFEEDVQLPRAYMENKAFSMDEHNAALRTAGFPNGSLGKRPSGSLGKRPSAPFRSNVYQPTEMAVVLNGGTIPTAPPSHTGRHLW
In data set [11] the target is panel of 320 non-olfactory GPCRs (Homo sapiens, UniProt O14843). The format is cell-based.
Chain of panel of 320 non-olfactory GPCRs (Homo sapiens, UniProt O14843) (O14843 whole entry): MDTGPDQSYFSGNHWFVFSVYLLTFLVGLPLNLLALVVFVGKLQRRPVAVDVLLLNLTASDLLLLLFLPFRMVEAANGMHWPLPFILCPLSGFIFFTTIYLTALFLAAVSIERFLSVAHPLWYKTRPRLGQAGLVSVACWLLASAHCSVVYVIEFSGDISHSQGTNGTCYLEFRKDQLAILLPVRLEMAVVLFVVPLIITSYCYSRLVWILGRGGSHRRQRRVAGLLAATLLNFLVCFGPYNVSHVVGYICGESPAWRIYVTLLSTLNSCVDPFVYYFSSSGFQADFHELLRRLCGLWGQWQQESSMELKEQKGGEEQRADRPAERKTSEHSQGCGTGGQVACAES
Data set [12] addresses panel of 320 non-olfactory GPCRs (Homo sapiens, UniProt P07550). The format is cell-based.
Data set [13] deals with panel of 320 non-olfactory GPCRs (Homo sapiens, UniProt P49682). In kind it is cell-based.
Chain of panel of 320 non-olfactory GPCRs (Homo sapiens, UniProt P49682) (P49682 whole entry): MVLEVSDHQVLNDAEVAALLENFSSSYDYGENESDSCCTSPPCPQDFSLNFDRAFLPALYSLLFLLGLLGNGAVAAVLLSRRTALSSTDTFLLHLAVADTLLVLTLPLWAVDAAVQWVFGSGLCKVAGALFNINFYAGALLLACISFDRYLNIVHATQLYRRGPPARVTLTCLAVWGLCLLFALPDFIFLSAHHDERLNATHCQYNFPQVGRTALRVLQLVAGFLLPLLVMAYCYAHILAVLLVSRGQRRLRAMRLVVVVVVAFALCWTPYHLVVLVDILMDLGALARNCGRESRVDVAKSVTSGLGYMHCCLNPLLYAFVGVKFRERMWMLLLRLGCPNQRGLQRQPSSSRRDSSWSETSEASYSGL
Data set [14] addresses panel of 320 non-olfactory GPCRs (Homo sapiens, UniProt P60893). The format is cell-based.
The target in data set [15] is panel of 320 non-olfactory GPCRs (Homo sapiens, UniProt Q8IZ08). The format is cell-based.
Chain of panel of 320 non-olfactory GPCRs (Homo sapiens, UniProt Q8IZ08) (Q8IZ08 whole entry): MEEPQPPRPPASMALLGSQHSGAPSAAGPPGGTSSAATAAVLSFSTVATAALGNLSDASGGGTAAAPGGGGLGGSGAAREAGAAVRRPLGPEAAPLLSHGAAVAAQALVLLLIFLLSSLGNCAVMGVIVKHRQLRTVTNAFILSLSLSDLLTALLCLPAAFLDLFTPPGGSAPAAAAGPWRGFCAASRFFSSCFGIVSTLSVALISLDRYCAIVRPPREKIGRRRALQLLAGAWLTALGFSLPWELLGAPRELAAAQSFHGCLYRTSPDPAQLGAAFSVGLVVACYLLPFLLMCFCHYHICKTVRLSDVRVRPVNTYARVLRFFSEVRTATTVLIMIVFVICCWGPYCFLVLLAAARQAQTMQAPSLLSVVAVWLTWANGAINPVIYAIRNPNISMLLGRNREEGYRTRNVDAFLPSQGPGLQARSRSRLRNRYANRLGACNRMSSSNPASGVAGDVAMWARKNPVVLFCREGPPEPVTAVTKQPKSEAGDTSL
For data set [16], the target named is panel of 320 non-olfactory GPCRs (Homo sapiens, UniProt Q8WXD0). The format is cell-based.
Chain of panel of 320 non-olfactory GPCRs (Homo sapiens, UniProt Q8WXD0) (Q8WXD0 whole entry): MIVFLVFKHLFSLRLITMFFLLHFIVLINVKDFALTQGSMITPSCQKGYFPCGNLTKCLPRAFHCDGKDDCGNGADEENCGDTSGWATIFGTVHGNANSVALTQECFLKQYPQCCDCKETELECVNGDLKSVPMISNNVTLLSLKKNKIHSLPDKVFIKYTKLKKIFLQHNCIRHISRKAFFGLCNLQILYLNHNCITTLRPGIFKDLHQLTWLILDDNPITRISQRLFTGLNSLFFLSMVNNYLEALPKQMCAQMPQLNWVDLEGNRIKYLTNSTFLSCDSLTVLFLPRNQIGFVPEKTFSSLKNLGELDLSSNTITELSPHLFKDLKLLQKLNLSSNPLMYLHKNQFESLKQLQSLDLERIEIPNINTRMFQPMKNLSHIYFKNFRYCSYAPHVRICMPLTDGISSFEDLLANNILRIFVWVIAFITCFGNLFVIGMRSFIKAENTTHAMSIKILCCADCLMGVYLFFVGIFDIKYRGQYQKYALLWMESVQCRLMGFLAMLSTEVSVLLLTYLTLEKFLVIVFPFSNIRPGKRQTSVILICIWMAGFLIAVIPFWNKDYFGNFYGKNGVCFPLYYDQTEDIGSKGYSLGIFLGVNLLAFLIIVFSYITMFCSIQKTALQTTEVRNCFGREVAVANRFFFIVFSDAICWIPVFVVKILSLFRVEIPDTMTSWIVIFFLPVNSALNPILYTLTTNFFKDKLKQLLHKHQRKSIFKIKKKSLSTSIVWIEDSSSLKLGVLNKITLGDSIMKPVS
Data set [17] is described as follows: in vitro. As to conditions: mouse, plasma.
Description: The reactions were stopped by adding 240 μL 90% acetonitrile containing internal standard with subsequent plasma proteins sedimentation by centrifuging at 5796 g for 5 min. Supernatants were analyzed by the HPLC system coupled with a tandem mass spectrometer. The percentage of the test compounds remaining after incubation in plasma and their half-lives (T1/2) were calculated.
In data set [18] the test system is P-gp (human MDR1). The experiment in a line: in vitro. The note with it: dog, MDCK-MDR1, pH 7.4.

The term half-life denotes how long it takes for the measured level to halve. A high value points to slow loss. What is called share remaining is the share of the starting amount still present when the sample was taken. In general, efflux ratio refers to the permeability from basolateral to apical divided by that in the opposite direction, in the common usage.

Values joined by “and” are separate entries in the source; they are usually repeats but may differ in a detail not shown here. Identical values can stand only once.

Chain of panel of 320 non-olfactory GPCRs (Homo sapiens, UniProt P41586) (P41586 21-468): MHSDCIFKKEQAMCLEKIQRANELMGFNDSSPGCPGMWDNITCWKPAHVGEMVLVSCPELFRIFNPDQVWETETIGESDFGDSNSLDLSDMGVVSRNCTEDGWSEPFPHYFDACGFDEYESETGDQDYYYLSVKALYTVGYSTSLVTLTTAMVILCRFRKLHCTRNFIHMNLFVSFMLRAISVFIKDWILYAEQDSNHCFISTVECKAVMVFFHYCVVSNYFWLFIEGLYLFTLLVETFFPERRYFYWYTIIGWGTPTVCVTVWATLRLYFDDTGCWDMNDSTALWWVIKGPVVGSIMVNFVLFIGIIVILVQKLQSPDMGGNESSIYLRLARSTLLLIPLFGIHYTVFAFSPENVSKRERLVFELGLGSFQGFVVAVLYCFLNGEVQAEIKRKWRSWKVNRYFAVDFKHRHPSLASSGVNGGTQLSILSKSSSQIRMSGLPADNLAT
Chain of panel of 320 non-olfactory GPCRs (Homo sapiens, UniProt P30559) (P30559 whole entry): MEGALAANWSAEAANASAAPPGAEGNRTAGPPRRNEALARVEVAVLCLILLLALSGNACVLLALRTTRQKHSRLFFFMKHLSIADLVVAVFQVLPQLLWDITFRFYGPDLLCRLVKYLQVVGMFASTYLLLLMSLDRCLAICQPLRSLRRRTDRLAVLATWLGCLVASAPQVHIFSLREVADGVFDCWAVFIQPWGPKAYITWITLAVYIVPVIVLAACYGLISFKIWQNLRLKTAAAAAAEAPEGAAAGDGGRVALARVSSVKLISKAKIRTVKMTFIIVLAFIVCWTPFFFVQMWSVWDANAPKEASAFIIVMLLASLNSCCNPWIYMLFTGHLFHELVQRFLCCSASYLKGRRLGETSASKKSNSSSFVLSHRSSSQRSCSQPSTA
Chain of panel of 320 non-olfactory GPCRs (Homo sapiens, UniProt P60893) (P60893 whole entry): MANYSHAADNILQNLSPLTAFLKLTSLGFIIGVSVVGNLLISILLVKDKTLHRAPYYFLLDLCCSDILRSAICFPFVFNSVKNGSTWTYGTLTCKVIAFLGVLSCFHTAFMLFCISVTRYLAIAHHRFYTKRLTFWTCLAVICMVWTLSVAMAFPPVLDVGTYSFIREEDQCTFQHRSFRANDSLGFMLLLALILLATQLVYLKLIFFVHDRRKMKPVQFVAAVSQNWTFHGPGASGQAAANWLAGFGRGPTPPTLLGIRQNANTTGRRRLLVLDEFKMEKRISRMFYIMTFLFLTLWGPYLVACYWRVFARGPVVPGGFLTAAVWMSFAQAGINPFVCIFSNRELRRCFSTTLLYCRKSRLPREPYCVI
Chain of panel of 320 non-olfactory GPCRs (Homo sapiens, UniProt Q969V1) (Q969V1 whole entry): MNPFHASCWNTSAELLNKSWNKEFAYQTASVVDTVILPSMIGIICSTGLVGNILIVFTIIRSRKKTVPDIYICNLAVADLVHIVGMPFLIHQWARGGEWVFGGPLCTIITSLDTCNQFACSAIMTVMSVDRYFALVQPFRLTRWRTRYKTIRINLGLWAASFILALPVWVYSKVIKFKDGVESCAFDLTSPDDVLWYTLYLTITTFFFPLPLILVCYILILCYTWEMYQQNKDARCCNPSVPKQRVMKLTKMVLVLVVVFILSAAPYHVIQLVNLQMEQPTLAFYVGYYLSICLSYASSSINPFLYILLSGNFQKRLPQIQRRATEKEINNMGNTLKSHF

As for `Cc1cc(C(=O)NC(C)(c2ccco2)c2ccco2)nn1-c1cccc(C(F)(F)F)c1` [‘4936], the “Fold of Basal RLU” value in data set [1] was 0.7 and 0.8 and 0.6; in data set [2], 0.9 and 0.8 and 1; in data set [3] it was 0.5 fold and 0.9 fold and 0.7 fold and 0.8 fold; in data set [4], 0.5 and 0.6 and 0.3; in data set [5] it was 0.6 fold and 0.7 fold and 0.5 fold; in data set [6] it was 1.4 fold and 1.5 fold and 1.7 fold. Besides, the “Fold of Basal RLU” value in data set [7] is 0.8 and 1.3; in data set [8], 1.7 and 1.4 and 1 and 1.6; in data set [9], 0.6 and 0.8 and 1.1; in data set [10] it was 0.7 and 0.6 and 0.8.
With `COC(=O)[C@@](C)(NC(=O)c1cc(C)n(-c2cccc(C(F)(F)F)c2)n1)c1cccs1` [‘1350], the “Fold of Basal RLU” value was 0.6 and 0.8 and 1.1 in data set [11]; 0.7 in data set [12]; 0.5 and 0.4 and 0.6 in [13]; 1 fold and 1.9 fold and 1.2 fold in data set [14]; 1.2 and 0.9 and 1.6 in data set [15]; 1.3 and 0.9 and 1 in [16]. Further, in data set [17], the half-life at 1 µM stood at 41 min. The molecule also yielded a share remaining at 20 min, 1 µM in data set [17] of 84%. In addition, in [17], the share remaining at 40 min, 1 µM turned out to be 66%. The molecule further had a fraction remaining at 1 h, 1 µM in [17] of 48%. The amount remaining at 2 h, 1 µM in data set [17] stood at 14%. Besides, the efflux ratio at 90 min, 10 μM in data set [18] was found to be 1.3.
